Measured values taken from patent US5698529A, “Chemotherapeutic compositions” (Supratek Pharma, Inc., priority 1996, dated 1997).

How the values were obtained:
[1] = test system: human T-lymphoma (Jurkat) cells; test: Cytotoxicity in human T-lymphoma (Jurkat) cells, Example 4; assay type: cell-based
Method: B. Human ovarian carcinoma cells (CRL157) are precultured in 1% solution of the same block copolymer but without daunorubicin in RPMI 1640 medium supplemented with 10% calf fetal serum. The preparation of part A is added and the mixture is incubated for 60 minutes at 37° C. and the cells then washed three times with RPMI 1640 and cultured in RPMI 1640 supplemented with 10% calf fetal serum for 3 days {Prep. A}. Cytotoxicity is measured, both for this preparation and a parallel preparation of free daunorubicin {Prep. B}, using the method of Alley et al., Cancer Res., 48, 589-601 (1988). The results are as follows:
A. A 1:1.5 mixture of block copolymers of poly(oxyethylene)-poly(oxypropylene) (pluronics P-85 and L-64) having individual ratios (n) of (oxypropylene) to (oxyethylene) blocks of 1.00 and 1.50, respectively, and a combined value (N) of 1.30, is diluted with RPMI 1640 medium to a final concentration of 2.0% at 4° C. The mixture is incubated for 30 minutes at 37° C. and then sterilely filtered through a 0.22 μm filter. An equal volume of a solution of 200 μg daunorubicin in RPMI 1640 medium is added and this mixture is incubated for 30 minutes at 37° C.
Daunorubicin in the composition of Example 3 is evaluated for cytotoxicity in (i) human T-lymphoma (Jurkat) cells as described in Example 1 and (ii) normal human mononuclear cells.

[2] = test system: H-69 cells; test: Cytotoxic activity of plasma of inoculated mice on H-69 cells; assay type: cell-based, human; conditions: MTD i.v., plasma one hour after administration
Method: Anti-neoplastic activity is determined by evaluation of the cytotoxic activity of plasma of mammals inoculated with the test composition (see de Valeriola et el., Cancer Chemother. Pharmacol. 29, 133-140, 1991).
Groups (6 animals/group) of C57B1/6 7-week-old female mice are inoculated i.v. (via the tail vein) with free or micellar (N=1.3) daunorubicin obtained as described in Example 3 {Prep. B and Prep. A, respectively}. Drug concentrations (MTD) are adjusted so that a maximum volume of 0.1 mL is injected in each mouse. The experiment is repeated twice.
To obtain plasma samples, blood (10 μl) is collected from the tail artery one hour after drug administration, diluted 1:10 with sterile RPMI 1640 medium, and centrifuged at 400 g for 15 minutes. […] The cells are incubated for two hours at 37° C. and 5% CO2, and then washed three times with RPMI 1640. The pretreated cells are incubated in RPMI 1640 supplemented with 10% fetal calf serum at 37° C. and 5% CO2 for three days, after which cytotoxicity is determined as described in Example 1.

COc1cccc2c1C(=O)c1c(O)c3c(c(O)c1C2=O)C[C@@](O)(C(C)=O)C[C@@H]3O[C@H]1C[C@H](N)[C@H](O)[C@H](C)O1 [Prep. B, daunorubicin]
inhibition at 0.0032 µg/mL [1]: 21%
inhibition at 0.016 µg/mL [1]: 36%
inhibition at 0.08 µg/mL [1]: 59%
inhibition at 0.4 µg/mL [1]: 83%
inhibition at 2 µg/mL [1]: 100%
inhibition at 10 µg/mL [1]: 100%
inhibition at 50 µg/mL [1]: 100%
Inhibition, % ([2]; plasma dilution 1:20): 42%
Inhibition, % ([2]; plasma dilution 1:200): 5%
Inhibition, % ([2]; plasma dilution 1:2000): 0%
Inhibition, % ([2]; plasma dilution 1:20000): 0%
